These results are taken from ChEMBL document CHEMBL5649166, “RIP3 induces apoptosis independent of pronecrotic kinase activity” (Mol Cell, 2014).

Assay [1] has as its target G protein-coupled receptor kinase 5 (Homo sapiens) (UniProt P34947). Nature of the assay: Residual activity of human GRK5 using casein as substrate at 1 uM in presence of 32P-ATP by Hotspot assay relative to control.
Assay [2] addresses T1, Mitogen-activated protein kinase kinase kinase 3 (Homo sapiens) (UniProt Q99759).
T1 sequence (whole entry): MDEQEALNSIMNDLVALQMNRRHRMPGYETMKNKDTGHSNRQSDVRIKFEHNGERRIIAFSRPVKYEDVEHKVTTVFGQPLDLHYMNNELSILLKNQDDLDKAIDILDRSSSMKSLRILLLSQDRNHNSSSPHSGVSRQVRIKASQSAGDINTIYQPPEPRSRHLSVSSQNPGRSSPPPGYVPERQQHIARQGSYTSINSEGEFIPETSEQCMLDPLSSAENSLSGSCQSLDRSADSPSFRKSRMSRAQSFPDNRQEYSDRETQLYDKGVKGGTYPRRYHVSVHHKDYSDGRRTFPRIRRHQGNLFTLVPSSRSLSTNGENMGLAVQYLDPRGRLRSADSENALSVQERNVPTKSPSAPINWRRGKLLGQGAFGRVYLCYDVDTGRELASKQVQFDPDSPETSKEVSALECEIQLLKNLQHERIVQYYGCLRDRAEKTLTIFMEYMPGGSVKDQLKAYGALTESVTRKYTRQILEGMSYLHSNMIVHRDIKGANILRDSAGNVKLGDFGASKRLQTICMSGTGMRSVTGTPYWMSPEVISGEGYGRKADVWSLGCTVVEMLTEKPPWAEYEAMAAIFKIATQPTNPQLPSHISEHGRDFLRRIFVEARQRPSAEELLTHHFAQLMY
Nature of the assay: Inhibition of human MEKK3 using myelin basic protein as substrate at 1 uM in presence of 32P-ATP by Hotspot assay relative to control; values are per cent of control.

The target in assay [3] is Homeodomain-interacting protein kinase 3 (Homo sapiens) (UniProt Q9H422). Nature of the assay: Inhibition of human HIPK3 using myelin basic protein as substrate at 1 uM in presence of 32P-ATP by Hotspot assay relative to control; values are per cent of control.
Sequence of Homeodomain-interacting protein kinase 3 (Homo sapiens) (Q9H422 whole entry, looked up, canonical isoform): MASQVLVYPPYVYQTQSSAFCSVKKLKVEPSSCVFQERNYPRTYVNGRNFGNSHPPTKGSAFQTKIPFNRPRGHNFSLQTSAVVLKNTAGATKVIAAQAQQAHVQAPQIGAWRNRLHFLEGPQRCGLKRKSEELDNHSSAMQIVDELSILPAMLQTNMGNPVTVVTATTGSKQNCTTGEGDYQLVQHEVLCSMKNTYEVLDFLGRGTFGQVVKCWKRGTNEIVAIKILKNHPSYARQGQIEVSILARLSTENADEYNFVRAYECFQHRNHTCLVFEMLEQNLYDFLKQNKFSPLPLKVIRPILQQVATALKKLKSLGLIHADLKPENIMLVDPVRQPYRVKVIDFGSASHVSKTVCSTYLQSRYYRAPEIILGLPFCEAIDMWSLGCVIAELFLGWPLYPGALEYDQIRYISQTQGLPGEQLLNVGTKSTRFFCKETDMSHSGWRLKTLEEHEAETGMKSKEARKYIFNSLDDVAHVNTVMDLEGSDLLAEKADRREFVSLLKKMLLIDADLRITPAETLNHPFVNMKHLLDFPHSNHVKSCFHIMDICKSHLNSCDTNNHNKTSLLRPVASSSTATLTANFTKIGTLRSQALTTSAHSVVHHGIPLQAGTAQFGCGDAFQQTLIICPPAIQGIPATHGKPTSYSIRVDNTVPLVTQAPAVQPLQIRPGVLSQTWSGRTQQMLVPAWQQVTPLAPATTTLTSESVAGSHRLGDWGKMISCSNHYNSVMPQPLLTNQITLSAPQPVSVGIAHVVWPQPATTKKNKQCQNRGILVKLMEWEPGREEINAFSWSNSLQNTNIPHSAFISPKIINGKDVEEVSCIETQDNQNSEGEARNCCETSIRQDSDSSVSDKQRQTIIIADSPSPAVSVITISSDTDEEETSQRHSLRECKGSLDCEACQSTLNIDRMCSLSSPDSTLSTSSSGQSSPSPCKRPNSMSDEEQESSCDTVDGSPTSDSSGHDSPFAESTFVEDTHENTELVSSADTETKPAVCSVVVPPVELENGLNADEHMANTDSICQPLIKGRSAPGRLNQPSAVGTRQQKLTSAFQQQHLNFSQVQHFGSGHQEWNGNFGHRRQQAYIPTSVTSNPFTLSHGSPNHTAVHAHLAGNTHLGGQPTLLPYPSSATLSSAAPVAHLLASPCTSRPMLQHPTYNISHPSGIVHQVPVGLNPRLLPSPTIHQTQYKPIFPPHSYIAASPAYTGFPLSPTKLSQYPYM
Assay [4] addresses Casein kinase I isoform delta (Homo sapiens) (UniProt P48730). Nature of the assay: Inhibition of human CK1d using KRRRAL[pS]VASLPGL as substrate at 1 uM in presence of 32P-ATP by Hotspot assay relative to control; values are per cent of control.
The target in assay [5] is T2, Protein kinase C epsilon type (Homo sapiens) (UniProt Q02156).
T2 sequence (whole entry): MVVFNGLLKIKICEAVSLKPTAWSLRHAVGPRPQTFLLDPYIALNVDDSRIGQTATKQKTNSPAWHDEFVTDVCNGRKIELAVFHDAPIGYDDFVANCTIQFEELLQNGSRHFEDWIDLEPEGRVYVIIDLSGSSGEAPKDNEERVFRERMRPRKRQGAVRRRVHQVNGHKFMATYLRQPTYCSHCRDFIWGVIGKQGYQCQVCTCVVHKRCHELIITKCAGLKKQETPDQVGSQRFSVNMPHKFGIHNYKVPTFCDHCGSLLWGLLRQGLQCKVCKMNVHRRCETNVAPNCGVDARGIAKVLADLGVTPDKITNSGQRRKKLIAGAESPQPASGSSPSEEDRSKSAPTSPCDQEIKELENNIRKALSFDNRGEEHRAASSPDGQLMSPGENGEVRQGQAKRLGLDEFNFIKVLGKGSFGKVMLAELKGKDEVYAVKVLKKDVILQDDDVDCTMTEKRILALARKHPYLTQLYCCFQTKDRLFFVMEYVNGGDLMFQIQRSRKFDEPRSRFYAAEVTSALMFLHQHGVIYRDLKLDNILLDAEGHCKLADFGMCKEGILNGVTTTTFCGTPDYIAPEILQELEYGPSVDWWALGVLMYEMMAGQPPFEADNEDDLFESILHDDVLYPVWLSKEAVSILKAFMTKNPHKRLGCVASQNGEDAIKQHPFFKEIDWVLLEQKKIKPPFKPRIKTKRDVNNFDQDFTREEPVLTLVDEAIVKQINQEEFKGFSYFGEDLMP
The experiment in a line: Inhibition of human PKCepsilon using ERMRPRKRQGSVRRRV as substrate at 1 uM in presence of 32P-ATP by Hotspot assay relative to control; values are per cent of control.

Assay [6] addresses T3, Dual specificity tyrosine-phosphorylation-regulated kinase 4 (Homo sapiens) (UniProt Q9NR20).
T3 sequence (whole entry): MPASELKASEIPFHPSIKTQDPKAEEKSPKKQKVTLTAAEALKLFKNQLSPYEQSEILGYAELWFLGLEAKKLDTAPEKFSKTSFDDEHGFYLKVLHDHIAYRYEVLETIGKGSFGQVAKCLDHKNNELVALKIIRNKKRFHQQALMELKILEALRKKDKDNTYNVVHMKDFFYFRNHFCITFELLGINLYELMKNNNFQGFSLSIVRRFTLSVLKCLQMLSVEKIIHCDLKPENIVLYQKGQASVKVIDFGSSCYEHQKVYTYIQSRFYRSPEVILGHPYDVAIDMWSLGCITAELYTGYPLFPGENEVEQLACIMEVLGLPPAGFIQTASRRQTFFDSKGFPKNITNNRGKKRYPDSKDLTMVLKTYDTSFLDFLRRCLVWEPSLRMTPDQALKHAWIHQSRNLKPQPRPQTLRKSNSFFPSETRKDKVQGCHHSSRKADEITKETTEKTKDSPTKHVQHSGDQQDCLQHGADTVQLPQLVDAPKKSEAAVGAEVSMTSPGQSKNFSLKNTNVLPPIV
Nature of the assay: Inhibition of human DYRK4 using RRRFRPASPLRGPPK as substrate at 1 uM in presence of 32P-ATP by Hotspot assay relative to control; values are per cent of control.

Another assay is filed under the species Homo sapiens. The experiment in a line: Inhibition of human CDK7/cyclin H using myelin basic protein as substrate at 1 uM in presence of 32P-ATP by Hotspot assay relative to control; values are per cent of control.
For assay [7], the target named is PAS domain-containing serine/threonine-protein kinase (Homo sapiens) (UniProt Q96RG2). Nature of the assay: Inhibition of human PASK using KKLNRTLSFAEPG as substrate at 1 uM in presence of 32P-ATP by Hotspot assay relative to control; values are per cent of control.
Sequence of PAS domain-containing serine/threonine-protein kinase (Homo sapiens) (Q96RG2 whole entry, the tested form may be a part): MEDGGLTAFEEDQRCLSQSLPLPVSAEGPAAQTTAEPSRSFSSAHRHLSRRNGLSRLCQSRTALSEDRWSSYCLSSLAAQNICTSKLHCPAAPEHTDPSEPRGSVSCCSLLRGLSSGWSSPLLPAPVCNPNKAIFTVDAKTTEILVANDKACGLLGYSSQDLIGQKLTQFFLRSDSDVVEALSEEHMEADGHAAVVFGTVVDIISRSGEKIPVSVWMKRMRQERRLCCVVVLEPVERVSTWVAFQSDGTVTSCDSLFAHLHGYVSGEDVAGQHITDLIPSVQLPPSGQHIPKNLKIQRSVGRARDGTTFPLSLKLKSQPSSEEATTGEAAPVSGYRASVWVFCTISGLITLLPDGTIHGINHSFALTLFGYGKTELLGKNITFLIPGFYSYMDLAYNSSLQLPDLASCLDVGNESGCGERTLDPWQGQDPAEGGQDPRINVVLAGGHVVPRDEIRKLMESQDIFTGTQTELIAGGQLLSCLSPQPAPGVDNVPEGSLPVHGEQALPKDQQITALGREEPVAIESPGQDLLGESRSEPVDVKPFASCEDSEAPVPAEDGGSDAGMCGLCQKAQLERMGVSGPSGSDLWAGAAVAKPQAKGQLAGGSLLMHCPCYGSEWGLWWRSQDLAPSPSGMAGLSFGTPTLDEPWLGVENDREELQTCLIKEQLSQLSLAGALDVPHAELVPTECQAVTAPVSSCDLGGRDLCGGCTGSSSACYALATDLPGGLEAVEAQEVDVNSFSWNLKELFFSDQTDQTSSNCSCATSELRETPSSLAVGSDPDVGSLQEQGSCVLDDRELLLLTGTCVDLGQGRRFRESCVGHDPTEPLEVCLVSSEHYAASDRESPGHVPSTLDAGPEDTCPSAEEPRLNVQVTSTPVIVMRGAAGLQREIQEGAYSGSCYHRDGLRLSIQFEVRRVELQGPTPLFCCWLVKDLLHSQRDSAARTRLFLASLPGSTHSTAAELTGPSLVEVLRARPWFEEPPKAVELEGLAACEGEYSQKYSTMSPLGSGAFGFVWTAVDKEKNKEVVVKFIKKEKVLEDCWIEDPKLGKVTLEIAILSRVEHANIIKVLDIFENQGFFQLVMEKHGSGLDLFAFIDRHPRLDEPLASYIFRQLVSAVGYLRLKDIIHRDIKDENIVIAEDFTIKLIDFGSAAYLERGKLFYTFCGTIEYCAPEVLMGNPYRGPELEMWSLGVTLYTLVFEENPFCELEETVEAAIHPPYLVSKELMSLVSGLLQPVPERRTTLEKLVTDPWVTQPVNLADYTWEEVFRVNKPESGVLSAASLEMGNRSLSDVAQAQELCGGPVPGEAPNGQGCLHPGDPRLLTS
Assay [8] deals with Serine/threonine-protein kinase PLK1 (Homo sapiens) (UniProt P53350). Nature of the assay: Inhibition of human PLK1 using casein as substrate at 1 uM in presence of 32P-ATP by Hotspot assay relative to control; values are per cent of control.
In assay [9] the target is Vascular endothelial growth factor receptor 2 (Homo sapiens) (UniProt P35968). The experiment in a line: Inhibition of human KDR/VEGFR2 using poly[Glu:Tyr] (4:1) as substrate at 1 uM in presence of 32P-ATP by Hotspot assay relative to control; values are per cent of control.
Sequence of Vascular endothelial growth factor receptor 2 (Homo sapiens) (P35968 whole entry): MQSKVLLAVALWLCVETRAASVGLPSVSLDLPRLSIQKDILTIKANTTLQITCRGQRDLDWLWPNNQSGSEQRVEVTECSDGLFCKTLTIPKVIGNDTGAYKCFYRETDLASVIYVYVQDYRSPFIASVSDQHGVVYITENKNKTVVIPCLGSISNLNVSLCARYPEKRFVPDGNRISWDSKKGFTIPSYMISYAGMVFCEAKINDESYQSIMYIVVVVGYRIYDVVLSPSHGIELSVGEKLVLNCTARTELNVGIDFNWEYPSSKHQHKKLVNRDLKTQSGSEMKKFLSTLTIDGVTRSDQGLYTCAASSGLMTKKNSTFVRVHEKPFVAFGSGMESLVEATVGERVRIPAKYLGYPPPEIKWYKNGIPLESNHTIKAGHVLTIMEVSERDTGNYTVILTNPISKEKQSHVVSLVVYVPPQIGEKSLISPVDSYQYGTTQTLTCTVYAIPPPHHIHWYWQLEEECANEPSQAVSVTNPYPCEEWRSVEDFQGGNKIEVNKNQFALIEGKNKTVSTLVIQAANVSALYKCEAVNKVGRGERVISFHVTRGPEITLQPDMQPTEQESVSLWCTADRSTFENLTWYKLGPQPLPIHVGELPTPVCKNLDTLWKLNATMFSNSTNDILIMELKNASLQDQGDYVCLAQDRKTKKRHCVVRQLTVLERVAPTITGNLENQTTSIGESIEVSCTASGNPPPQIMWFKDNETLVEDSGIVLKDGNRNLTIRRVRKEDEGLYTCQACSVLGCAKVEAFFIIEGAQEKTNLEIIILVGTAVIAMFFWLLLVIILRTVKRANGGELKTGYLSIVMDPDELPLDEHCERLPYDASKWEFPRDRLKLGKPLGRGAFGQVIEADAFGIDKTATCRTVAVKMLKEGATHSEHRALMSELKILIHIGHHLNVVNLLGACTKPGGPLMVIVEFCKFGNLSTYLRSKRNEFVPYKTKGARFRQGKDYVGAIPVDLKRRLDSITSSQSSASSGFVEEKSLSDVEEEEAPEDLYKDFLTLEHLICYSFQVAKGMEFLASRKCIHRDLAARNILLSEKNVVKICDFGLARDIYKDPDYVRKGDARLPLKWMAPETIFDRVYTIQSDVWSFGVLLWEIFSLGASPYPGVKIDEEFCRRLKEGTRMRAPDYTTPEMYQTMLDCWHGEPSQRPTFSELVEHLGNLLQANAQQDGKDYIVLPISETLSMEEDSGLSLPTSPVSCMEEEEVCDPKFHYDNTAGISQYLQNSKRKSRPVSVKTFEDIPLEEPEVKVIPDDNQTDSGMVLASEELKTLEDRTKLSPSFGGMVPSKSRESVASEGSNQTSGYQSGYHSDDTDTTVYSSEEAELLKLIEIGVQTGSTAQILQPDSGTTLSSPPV

Sequence of G protein-coupled receptor kinase 5 (Homo sapiens) (P34947 whole entry, looked up): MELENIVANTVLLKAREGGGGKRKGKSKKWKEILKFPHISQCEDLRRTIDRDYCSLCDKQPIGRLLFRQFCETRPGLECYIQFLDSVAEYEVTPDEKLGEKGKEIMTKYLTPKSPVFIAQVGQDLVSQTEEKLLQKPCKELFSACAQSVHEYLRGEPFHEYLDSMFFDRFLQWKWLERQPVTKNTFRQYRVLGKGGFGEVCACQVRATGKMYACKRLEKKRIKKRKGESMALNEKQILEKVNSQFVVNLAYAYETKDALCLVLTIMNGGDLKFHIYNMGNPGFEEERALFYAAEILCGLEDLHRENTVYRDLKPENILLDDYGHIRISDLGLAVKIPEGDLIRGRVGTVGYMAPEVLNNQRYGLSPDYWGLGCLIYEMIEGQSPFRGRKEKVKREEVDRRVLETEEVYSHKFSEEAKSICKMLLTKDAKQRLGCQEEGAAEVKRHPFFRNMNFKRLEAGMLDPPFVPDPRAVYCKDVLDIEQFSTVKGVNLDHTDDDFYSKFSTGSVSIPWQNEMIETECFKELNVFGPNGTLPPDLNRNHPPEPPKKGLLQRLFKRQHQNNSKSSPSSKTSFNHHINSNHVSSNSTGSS
Sequence of Casein kinase I isoform delta (Homo sapiens) (P48730 whole entry, looked up, canonical isoform): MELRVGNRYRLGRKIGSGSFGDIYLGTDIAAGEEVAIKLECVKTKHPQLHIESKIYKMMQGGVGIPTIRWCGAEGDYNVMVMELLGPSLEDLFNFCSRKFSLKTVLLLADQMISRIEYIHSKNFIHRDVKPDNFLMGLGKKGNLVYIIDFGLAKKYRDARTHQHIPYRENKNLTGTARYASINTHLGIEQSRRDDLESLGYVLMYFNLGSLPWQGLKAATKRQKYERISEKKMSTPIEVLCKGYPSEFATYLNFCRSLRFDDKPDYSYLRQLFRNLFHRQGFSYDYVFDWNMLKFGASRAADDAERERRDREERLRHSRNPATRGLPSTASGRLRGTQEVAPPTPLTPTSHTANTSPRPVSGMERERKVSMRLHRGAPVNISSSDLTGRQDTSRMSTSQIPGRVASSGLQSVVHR

`CC(C)S(=O)(=O)c1ccc2nccc(Nc3ccc4scnc4c3)c2c1`: the residual activity in [1] was 97.4%; in assay [2], 92.3%; in assay [3] it was 104%; in assay [4], 104%; in assay [5], 96%; in assay [6], 102%. The residual activity in the assay filed under Homo sapiens is 97.7%; in assay [7], 96.5%; in assay [8], 95.4%; in [9] it was 17.4%.

Turning to `CNC(=O)c1ccc2c(c1)ncn2-c1ccc(CC(=O)OC(C)(C)C)cc1`, the residual activity in assay [1] amounted to 94.7%; in [2], 96%; in assay [3], 102%; in assay [4], 101%; in [5], 96.7%; in assay [6], 99.6%. The residual activity in the assay listed under Homo sapiens was found to be 96.2%; in assay [7], 99.8%; in assay [8] it was 103%; in [9] it was 78.7%.

For `Cc1cc(-c2cnc(N)c3c(-c4ccc5scnc5c4)csc23)n(C)n1`, the residual activity in [1] is 96.5%; in assay [2] it was 95%; in [3], 101%; in assay [4], 84.6%; in assay [5], 103%; in assay [6] it was 98.2%. In addition, the residual activity was determined as 94.2% in the assay filed under Homo sapiens, 93.1% in assay [7], 98.6% in assay [8] and 59.8% in [9].
